Data as given in patent publication US7618990B2, “Oxazolidone derivatives as PR modulators” (Wyeth, priority 2006, dated 2009).

Tests used:
[1] = system: alkaline phosphatase activity in T47D cells; assay: Effects of progestins and antiprogestins on alkaline phosphatase activity in T47D cells (antagonist mode); format: cell-based; details: Homo sapiens, in the presence of 1 nM progesterone, read-out: T47D Alkaline Phosphatase Activity IC50 (nM) or % inhibition; for IC50: 24 h; for inhibition at 3 µM: % inhibition at 3000 nM
Method: (1) Effects of Progestins and Antiprogestins on Alkaline Phosphatase Activity in T47D Cells
PURPOSE: To identify progestins or antiprogestins by determining a compound's effect on alkaline phosphatase activity in T47D cells.
Culture Medium: • DMEM:F12 (1:1) (GIBCO, BRL) supplemented with 5% (v/v) charcoal stripped fetal bovine serum (not heat-inactivated), 100 U/mL penicillin, 100 μg/mL streptomycin, and 2 mM the GlutaMax™ reagent (GIBCO, BRL).
Alkaline Phosphatase Assay Buffer: • I. 0.1M Tris-HCl, pH 9.8, containing 0.2% the Triton® X-100 reagent • II. 0.1M Tris-HCl, pH 9.8, containing 4 mM p-nitrophenyl phosphate (Sigma). B. Cell Culture and Treatment:
Frozen T47D cells were thawed in a 37° C. water bath and diluted to 280,000 cells/mL in culture medium. To each well in a 96-well plate (Falcon, Becton Dickinson Labware), 180 μL of diluted cell suspension was added.
Twenty μL of reference or test compounds diluted in the culture medium was then added to each well. When testing for progestin antagonist activity, reference antiprogestins or test compounds were added in the presence of 1 nM progesterone. The cells were incubated at 37° C. in a 5% CO2/humidified atmosphere for 24 h.
NOTE: For high throughput screening, one concentration of each compound was tested at 0.3 μg/mL. Based on an average molecular weight of 300 g/mol for the compounds in the library, the concentration was approximately 1 μM. Subsequently, active compounds were tested in dose response assays to determine EC50 and IC50. C. Alkaline Phosphatase Enzyme Assay:
At the end of treatment, the medium was removed from the plate. Fifty μL of assay buffer I was added to each well. The plates were shaken in a titer plate shaker for 15 min. Then 150 μL of assay buffer II was added to each well. Optical density measurements were taken at 5 min intervals for 30 min at a test wavelength of 405 nm.
For reference and test compounds, a dose response curve was generated for dose (X-axis) vs. the rate of enzyme reaction (slope) (Y-axis). Square root-transformed data was used for analysis of variance and nonlinear dose response curve fitting for both agonist and antagonist modes. Huber weighting was used to down-weight the effects of outliers. EC50 or IC50 values were calculated from the retransformed values. JMP software (SAS Institute, Inc.) was used for both one-way analysis of variance and non-linear dose response analysis in both single dose and dose response studies.
Progesterone and trimegestone were reference progestins and RU486 was the reference antiprogestin. All reference compounds were run in full dose response curves and the EC50 and IC50 values were calculated.

Row | SMILES | IC50 [1] | melting point | inhibition at 3 µM [1] | inhibition at 0.003 µM ([1]; % inhibition at 3 nM)
1 | C[C@@H]1COC(=O)N1c1nc(-c2cccc(Br)c2)cs1 [Example 16, (4R)-3-[4-(3-bromophenyl)-1,3-thiazol-2-yl]-4-methyl-1,3-oxazolidin-2-one] | 142 nM | 126 to 128 °C | – | –
2 | CC1(C)COC(=O)N1c1nc(-c2ccc(C#N)cc2)cs1 [Example 6, 4-[2-(4,4-Dimethyl-2-oxo-1,3-oxazolidin-3-yl)-1,3-thiazol-4-yl]benzonitrile] | 3.1 nM | 183 to 185 °C | – | –
3 | N#Cc1ccc(-c2csc(N3C(=O)OC[C@H]3c3ccccc3)n2)cc1 [Example 45, 4-{2-[(4R)-2-Oxo-4-phenyl-1,3-oxazolidin-3-yl]-1,3-thiazol-4-yl}benzonitrile] | 166 nM | 243 to 245 °C | – | –
4 | CCC1(CC)COC(=O)N1c1nc(-c2ccc(C#N)cc2)cs1 [Example 19, 4-[2-(4,4-Diethyl-2-oxo-1,3-oxazolidin-3-yl)-1,3-thiazol-4-yl]benzonitrile] | 0.45 nM | 145 to 147 °C | – | –
5 | O=C1OCCN1c1nc(-c2ccc(Br)cc2)cs1 [Example 28, 3-[4-(4-Bromophenyl)-1,3-thiazol-2-yl]-1,3-oxazolidin-2-one] | 158 nM | 197 to 199 °C | – | –
6 | CCC1CN(c2nc(-c3ccc(Br)cc3)cs2)C(=O)O1 (stereo not drawn) [Example 32, 3-[4-(4-Bromophenyl)-1,3-thiazol-2-yl]-5-ethyl-1,3-oxazolidin-2-one] | 407 nM | 141 to 142 °C | – | –
7 | CCC[C@H]1COC(=O)N1c1nc(-c2ccc(Br)cc2)cs1 [Example 22, (4S)-3-[4-(4-Bromophenyl)-1,3-thiazol-2-yl]-4-propyl-1,3-oxazolidin-2-one] | 64.3 nM | 116 to 118 °C | – | –
8 | N#Cc1ccc(-c2csc(N3C(=O)OCC34CCCC4)n2)cc1 [Example 47, 4-[2-(2-Oxo-3-oxa-1-azaspiro[4.4]non-1-yl)-1,3-thiazol-4-yl]benzonitrile] | 45.4 nM | 196 to 198 °C | – | –
9 | CC1(C)COC(=O)N1c1nc(-c2cccc(Br)c2)cs1 [Example 18, 3-[4-(3-Bromophenyl)-1,3-thiazol-2-yl]-4,4-dimethyl-1,3-oxazolidin-2-one] | 30 nM | 142 to 144 °C | – | –
10 | CCC[C@@H]1COC(=O)N1c1nc(-c2ccc(Br)cc2)cs1 [Example 20, (4R)-3-[4-(4-Bromophenyl)-1,3-thiazol-2-yl]-4-propyl-1,3-oxazolidin-2-one] | 70.2 nM | 114 to 116 °C | – | –
11 | O=C1OCCCN1c1nc(-c2ccc(Br)cc2)cs1 [Example 33, 3-[4-(4-Bromophenyl)-1,3-thiazol-2-yl]-1,3-oxazinan-2-one] | 238 nM | 225 to 227 °C | – | –
12 | CC(C)C1COC(=O)N1c1nc(-c2ccc(C#N)cc2)cs1 (stereo not drawn) [Example 43, 4-[2-(4-Isopropyl-2-oxo-1,3-oxazolidin-3-yl)-1,3-thiazol-4-yl]benzonitrile] | 21.9 nM | 126 to 128 °C | – | –
13 | CCCC1COC(=O)N1c1nc(-c2ccc(Br)cc2)cs1 (stereo not drawn) [Example 29, 3-[4-(4-Bromophenyl)-1,3-thiazol-2-yl]-4-propyl-1,3-oxazolidin-2-one] | 88.8 nM | 156 to 157 °C | – | –
14 | N#Cc1ccc(-c2csc(N3C(=O)OCC34CC4)n2)cc1 [Example 25, 4-[2-(5-oxo-6-oxa-4-azaspiro[2.4]hept-4-yl)-1,3-thiazol-4-yl]benzonitrile] | 21.6 nM | 219 to 221 °C | – | –
15 | CC[C@H]1COC(=O)N1c1nc(-c2ccc(C#N)cc2)c(Cl)s1 [Example 14, 4-{5-Chloro-2-[(4S)-4-ethyl-2-oxo-1,3-oxazolidin-3-yl]-1,3-thiazol-4-yl}benzonitrile] | 294 nM | 157 to 159 °C | – | –
16 | CCCCC1COC(=O)N1c1nc(-c2ccc(Br)cc2)cs1 (stereo not drawn) [Example 30, 3-[4-(4-Bromophenyl)-1,3-thiazol-2-yl]-4-butyl-1,3-oxazolidin-2-one] | – | 153 to 155 °C | 100% | –
17 | CC[C@H]1COC(=O)N1c1nc(-c2ccc(Br)cc2)c(F)s1 [Example 11, (4S)-3-[4-(4-Bromophenyl)-5-fluoro-1,3-thiazol-2-yl]-4-ethyl-1,3-oxazolidin-2-one] | 120 nM | 105 to 107 °C | – | –

The next lines start with results.

Row | IC50 [1] | melting point | SMILES | inhibition at 3 µM [1] | inhibition at 0.003 µM ([1]; % inhibition at 3 nM)
18 | 437 nM | 175 to 176.5 °C | Cc1sc(N2C(=O)OCC2(C)C)nc1-c1ccc(Br)cc1 [Example 56, 3-[4-(4-Bromophenyl)-5-methyl-1,3-thiazol-2-yl]-4,4-dimethyl-1,3-oxazolidin-2-one] | – | –
19 | – | 244 to 245 °C | N#Cc1ccc(-c2csc(-n3c(=O)oc4ccccc43)n2)cc1 [Example 54, 4-[2-(2-Oxo-1,3-benzoxazol-3(2H)-yl)-1,3-thiazol-4-yl]benzonitrile] | 50% | –
20 | – | 181 to 183 °C | CC1(C)COC(=O)N1c1nc(-c2cccc(C#N)c2)cs1 [Example 52, 3-[2-(4,4-dimethyl-2-oxo-1,3-oxazolidin-3-yl)-1,3-thiazol-4-yl]benzonitrile] | 95% | –
21 | 43.5 nM | 250 to 251 °C | CC1(C)COC(=O)N1c1nc(-c2ccc(C#N)s2)cs1 [Example 60, 5-[2-(4,4-dimethyl-2-oxo-1,3-oxazolidin-3-yl)-1,3-thiazol-4-yl]thiophene-2-carbonitrile] | – | –
22 | 101 nM | 192.5 to 193 °C | Cc1sc(N2C(=O)OCC2(C)C)nc1-c1ccc(C#N)cc1 [Example 57, 4-[2-(4,4-Dimethyl-2-oxo-1,3-oxazolidin-3-yl)-5-methyl-1,3-thiazol-4-yl]benzonitrile] | – | –
23 | – | 151 to 153 °C | CCC1(CC)COC(=O)N1c1nc(-c2ccc(C#N)cc2)c(F)s1 [Example 53, 4-[2-(4,4-Diethyl-2-oxo-1,3-oxazolidin-3-yl)-5-fluoro-1,3-thiazol-4-yl]benzonitrile] | – | 40%
24 | 565 nM | 189 to 192 °C | O=C1OC[C@@H](CO)N1c1nc(-c2ccc(Br)cc2)cs1 [Example 71, (4R)-3-[4-(4-Bromophenyl)-1,3-thiazol-2-yl]-4-(hydroxymethyl)-1,3-oxazolidin-2-one] | – | –
25 | 41.9 nM | 222 to 224 °C | N#Cc1ccc(-c2nc(N3C(=O)OCC34CC4)sc2F)cc1 [Example 55, 4-[5-Fluoro-2-(5-oxo-6-oxa-4-azaspiro[2.4]hept-4-yl)-1,3-thiazol-4-yl]benzonitrile] | – | –
26 | 37.8 nM | 249 to 251.5 °C | CC1(C)COC(=O)N1c1nc(-c2csc(C#N)c2)cs1 [Example 61, 4-[2-(4,4-Dimethyl-2-oxo-1,3-oxazolidin-3-yl)-1,3-thiazol-4-yl]thiophene-2-carbonitrile] | – | –
27 | 99 nM | 230 to 234 °C | CC1(C)COC(=O)N1c1nc(-c2sc(C#N)cc2Br)cs1 [Example 59, 4-Bromo-5-[2-(4,4-dimethyl-2-oxo-1,3-oxazolidin-3-yl)-1,3-thiazol-4-yl]thiophene-2-carbonitrile] | – | –
28 | – | 165 to 167 °C | COC(=O)[C@@H]1COC(=O)N1c1nc(-c2ccc(Br)cc2)cs1 [Example 70, Methyl (4S)-3-[4-(4-bromophenyl)-1,3-thiazol-2-yl]-2-oxo-1,3-oxazolidine-4-carboxylate] | 90% | –
29 | 53.4 nM | 158 to 161 °C | CC1(C)COC(=N)N1c1nc(-c2ccc(C#N)cc2)cs1 [Example 63, 4-[2-(2-imino-4,4-dimethyl-1,3-oxazolidin-3-yl)-1,3-thiazol-4-yl]benzonitrile] | – | –
30 | 95.5 nM | 163 to 165 °C | O=C1OCC(CC(F)(F)F)N1c1nc(-c2ccc(Br)cc2)cs1 (stereo not drawn) [Example 67, 3-[4-(4-Bromophenyl)-1,3-thiazol-2-yl]-4-(2,2,2-trifluoroethyl)-1,3-oxazolidin-2-one] | – | –
